Laboratory results: patent publication US20220033426A1, “Transition Metal Macrocyclics as MRI Contrast Agents for Molecular Imaging” (YALE UNIVERSITY, priority 2020, published 2022)

How the values were obtained:
[1] = Temperature sensitivity of 1H NMR proton chemical shift (BIRDS), variable temperature; type: physicochemical; details: At 11.7 T and a temperature range of 25-42° C.
Description: (§1) For paramagnetic complexes, the total chemical shift of the nuclear spin (δO) is dependent on the cumulative effects of diamagnetic (δD) and paramagnetic (δP) terms, where δP is typically much larger than δD, which has also a very weak temperature dependence. Thus, the effect of temperature on the chemical shift is dominated by δP. Similarly, protonation of an exchangeable group from the complex can modify its geometry and alter its chemical shifts, thus providing pH sensing capability. Variation of the total shift term, ΔδO, when temperature changes by ΔT and pH changes by ΔpH, can be modeled as
(§2) where CT=(ΔδO/ΔT)pH,[X] is the temperature sensitivity, CpH=(ΔδO/Δ pH)T,[X] is the pH sensitivity, and CX represents the sensitivity to cation X concentration (see Coman, D. et al., “Brain temperature by Biosensor Imaging of Redundant Deviation in Shifts (BIRDS): comparison between TmDOTP5^− and TmDOTMA^−,” NMR in Biomedicine, 2010, 23(3):277-285 for details). pH or temperature sensing with BIRDS depends on CT and CpH in relation to ΔδO (>>10^1 ppm) and is inherently independent of agent concentration and static magnetic field (BO) (Coman, D. et al., “Brain temperature and pH measured by 1H chemical shift imaging of a thulium agent,” NMR in Biomedicine, 2009, 22(2):229-239).
(§3) Since the ^1H NMR chemical shifts of the —NH peaks in the [XDOTA-4AmC]^2− and [XDOTA-4AmP]^6− complexes are temperature and pH-dependent (FIG. 6 and FIG. 7), they can be used for measurements of temperature and pH using BIRDS (Table 1). […] In the [XDOTMA]^2− set of complexes, it was observed that the —CH3 proton resonance has a higher intensity compared to other nonexchangeable proton peaks, like H2 or H3 (FIG. 2). The 3D surface plots in FIGS. 10A-C represent the temperature and pH dependencies of the —CH3 proton resonance of the [XDOTMA]^2− complex.

[2] = pH sensitivity of 1H NMR proton chemical shift (BIRDS), variable pH; type: physicochemical; details: At 11.7 T and a pH range of 6.5-8.0
Description: as §1, §2, §3

| SMILES | Temperature Sensitivity, —NH proton resonance [1] [ppm/° C.] | pH Sensitivity, —NH proton resonance [2] [ppm/pH unit] |
| --- | --- | --- |
| O=C(CN1CCN(CC(=O)NCP(=O)([O-])[O-])CCN(CC(=O)NCP(=O)([O-])[O-])CCN(CC(=O)NCP(=O)([O-])[O-])CC1)NCP(=O)([O-])[O-].[Co+2] [[Co(ii)DOTA-4AmP]^6−] | 0.14 ± 0.01 | 0.37 ± 0.08 |
| O=C([O-])CNC(=O)CN1CCN(CC(=O)NCC(=O)[O-])CCN(CC(=O)NCC(=O)[O-])CCN(CC(=O)NCC(=O)[O-])CC1.[Fe+2] [[Fe(ii)DOTA-4AmC]^2−] | 0.16 ± 0.01 | 0.04 ± 0.02 |
| O=C([O-])CNC(=O)CN1CCN(CC(=O)NCC(=O)[O-])CCN(CC(=O)NCC(=O)[O-])CCN(CC(=O)NCC(=O)[O-])CC1.[Ni+2] [[Ni(ii)DOTA-4AmC]^2−] | 0.14 ± 0.02 | 1.07 ± 0.12 |
